# Results: patent US9932637B2, “Genetic polymorphisms associated with cardiovascular disorders and drug response, methods of detection and uses thereof” (CELERA CORPORATION, priority 2003, dated 2018)
# Tested on: patients with prior myocardial infarction (CARE study)
# Test: CARE: association of SNPs with pravastatin treatment in RMI prevention (genotypic RR in placebo and statin strata; Table 10)
# Type: in vivo, human
# Source text: In order to identify genetic markers associated with acute coronary events (e.g. MI, stroke, unstable angina, congestive heart failure, etc.) or response to statin treatment for the prevention of coronary events, samples from the Cholesterol and Recurrent Events (CARE) study (a randomized multicentral double-blinded trial on secondary prevention of acute coronary events with pravastatin) (Sacks et al., 1991, Am. J. Cardiol. 68: 1436-1446) were genotyped. A well-documented myocardial infarction (MI) was one of the enrollment criteria for entry into the CARE study. Patients were enrolled in the CARE trial from 80 participating study centers. […] Patients were randomized to receive either 40 mg of pravastatin once daily or a matching placebo. The primary endpoint of the trial was death from coronary heart disease and the median duration of follow-up was 5.0 years (range, 4.0 to 6.2 years). […] Secondary endpoints of other related cardiovascular or metabolic disease events, and changes in clinical variables were also recorded in pravastatin-treated and placebo groups. All individuals included in the study had signed a written informed consent form and the study protocol was approved by the respective Institutional Review Boards (IRBs).
# For genotyping SNPs in CARE patient samples, DNA was extracted from blood samples using conventional DNA extraction methods such as the QIA-amp kit from Qiagen. Genotypes were obtained on an ABI PRISM® 7900HT Sequence Detection PCR system (Applied Biosystems, Foster City, Calif.) by kinetic allele-specific PCR, similar to the method described by Germer et al. (Germer S., Holland M. J., Higuchi R. 2000, Genome Res. 10: 258-266).
# For statistical analysis of association of SNPs with pravastatin treatment in RMI prevention (Table 10), effect sizes were estimated through genotypic RR, including 95% CIs. Homogeneity of Cochran-Mantel-Haenszel odds ratios was tested across pravastatin and placebo strata using the Wald test. […] (this adjustment supports independence of the SNP association from conventional risk factors). This table also provides the frequency data for the at risk allele in the columns labeled “Case Y PRIMER ALLELE Nucleotide Frequency” and “Control Y PRIMER ALLELE Nucleotide Frequency”. Allele frequencies for the cases and controls ≤0.49 indicate that the at-risk allele is the minor allele. Allele frequencies ≥0.50 indicate that the at-risk allele is the major allele. An example of a SNP associated with increased risk for an adverse cardiovascular event in the placebo group using a dominant genotypic test is hCV25644901. […] However, this same SNP was protective in the statin treated group with a RR of 0.58. An example of a SNP associated with an adverse cardiovascular event in the placebo group using the allelic association test is hCV16044337 with a RR of 1.87 for the homozygous AA genotype. This same genotype was protective in the statin treated group with a RR of 0.56.
structure (smiles),measurement,setting,value
CC[C@H](C)C(=O)O[C@H]1C[C@H](O)C=C2C=C[C@H](C)[C@H](CC[C@@H](O)C[C@@H](O)CC(=O)O)[C@H]21 [pravastatin],RR (relative risk for RMI),"ABCA1 hCV2741051, Het(TC) stratum, Statin vs Placebo",0.92
same,RR (relative risk for RMI),"ABCA1 hCV2741051, Maj Hom(CC) stratum, Statin vs Placebo",0.59
same,RR (relative risk for RMI),"ABCA1 hCV2741051, Min Hom(TT) stratum, Statin vs Placebo",1.25
same,RR (relative risk for RMI),"ABCA1 hCV2741051, Statin stratum, het(TC) vs. ref(CC)",1.09
same,RR (relative risk for RMI),"ABCA1 hCV2741051, Statin stratum, hom(TT) vs. ref(CC)",1.14
same,RR (relative risk for RMI),"ABCA1 hCV2741083, Het(TC) stratum, Statin vs Placebo, covars none",1.51
same,RR (relative risk for RMI),"ABCA1 hCV2741083, Maj Hom(TT) stratum, Statin vs Placebo, covars none",0.61
same,RR (relative risk for RMI),"ABCA1 hCV2741083, Min Hom(CC) stratum, Statin vs Placebo, covars none",1.36
same,RR (relative risk for RMI),"ABCA1 hCV2741083, Statin stratum, het(TC)vs. ref(TT), covars none",1.29
same,RR (relative risk for RMI),"ABCA1 hCV2741083, Statin stratum, hom (CC)vs. ref(TT), covars none",1.00
same,RR (relative risk for RMI),"ATF6 hCV25631989, Het (TC) stratum, Statin vs Placebo",2.43
same,RR (relative risk for RMI),"ATF6 hCV25631989, Maj Hom (CC) stratum, Statin vs Placebo",0.66
same,RR (relative risk for RMI),"ATF6 hCV25631989, Statin stratum, het(TC) vs. ref (CC)",1.53
same,RR (relative risk for RMI),"CYBA hCV2038, Het(AG) stratum, Statin vs Placebo, covars hx_smoke",0.74
same,RR (relative risk for RMI),"CYBA hCV2038, Maj Hom(GG) stratum, Statin vs Placebo, covars hx_smoke",0.55
same,RR (relative risk for RMI),"CYBA hCV2038, Min Hom(AA) stratum, Statin vs Placebo, covars hx_smoke",1.38
same,RR (relative risk for RMI),"CYBA hCV2038, Statin stratum, het(AG) vs. ref(GG), covars hx_smoke",1.40
same,RR (relative risk for RMI),"CYBA hCV2038, Statin stratum, hom(AA) vs. ref(GG), covars hx_smoke",2.02
same,RR (relative risk for RMI),"EDG3 hCV25610470, Het(GA) stratum, Statin vs Placebo, covars HX_SMOKE",0.22
same,RR (relative risk for RMI),"EDG3 hCV25610470, Maj Hom(GG) stratum, Statin vs Placebo, covars HX_SMOKE",0.77
same,RR (relative risk for RMI),"EDG3 hCV25610470, Min Hom(AA) stratum, Statin vs Placebo, covars HX_SMOKE",1.10
same,RR (relative risk for RMI),"EDG3 hCV25610470, Statin stratum, het(GA) vs. ref(GG), covars HX_SMOKE",0.37
same,RR (relative risk for RMI),"F7 hCV783184, Het(TG) stratum, Statin vs Placebo",1.10
same,RR (relative risk for RMI),"F7 hCV783184, Maj Hom(GG) stratum, Statin vs Placebo",0.64
same,RR (relative risk for RMI),"F7 hCV783184, Min Hom(TT) stratum, Statin vs Placebo",2.59
same,RR (relative risk for RMI),"F7 hCV783184, Statin stratum, het (TG) vs. ref(GG)",1.28
same,RR (relative risk for RMI),"F7 hCV783184, Statin stratum, hom(TT) vs. ref(GG)",1.65
same,RR (relative risk for RMI),"FCAR hCV7841642, Het(GA) stratum, Statin vs Placebo",0.32
same,RR (relative risk for RMI),"FCAR hCV7841642, Maj Hom(GG) stratum, Statin vs Placebo",0.82
same,RR (relative risk for RMI),"FCAR hCV7841642, Min Hom(AA) stratum, Statin vs Placebo",1.33
same,RR (relative risk for RMI),"FCAR hCV7841642, Statin stratum, het(GA) vs. ref(GG)",0.60
same,RR (relative risk for RMI),"FCAR hCV7841642, Statin stratum, hom (AA)vs. ref(GG)",1.38
same,RR (relative risk for RMI),"FN1 hCV9506149, Het(TA) stratum, Statin vs Placebo",0.90
same,RR (relative risk for RMI),"FN1 hCV9506149, Maj Hom(AA) stratum, Statin vs Placebo",0.58
same,RR (relative risk for RMI),"FN1 hCV9506149, Min Hom(TT) stratum, Statin vs Placebo",1.10
same,RR (relative risk for RMI),"FN1 hCV9506149, Statin stratum, het(TA) vs. ref(AA)",1.15
same,RR (relative risk for RMI),"FN1 hCV9506149, Statin stratum, hom(TT) vs. ref(AA)",1.72
same,RR (relative risk for RMI),"HLA-DPB1 hCV8851085, Het(GA) stratum, Statin vs Placebo, covars hx_smoke",0.87
same,RR (relative risk for RMI),"HLA-DPB1 hCV8851085, Maj Hom(GG) stratum, Statin vs Placebo, covars hx_smoke",0.58
same,RR (relative risk for RMI),"HLA-DPB1 hCV8851085, Min Hom(AA) stratum, Statin vs Placebo, covars hx_smoke",2.19
same,RR (relative risk for RMI),"HLA-DPB1 hCV8851085, Statin stratum, het (GA)vs. ref(GG), covars hx_smoke",1.40
same,RR (relative risk for RMI),"HLA-DPB1 hCV8851085, Statin stratum, hom(AA) vs. ref(GG), covars hx_smoke",1.97
same,RR (relative risk for RMI),"HSPG2 hCV1603656, Het(TC) stratum, Statin vs Placebo, covars hx_smoke",0.42
same,RR (relative risk for RMI),"HSPG2 hCV1603656, Maj Hom (CC) stratum, Statin vs Placebo, covars hx_smoke",0.80
same,RR (relative risk for RMI),"HSPG2 hCV1603656, Statin stratum, het (TC)vs. ref(CC), covars hx_smoke",0.65
same,RR (relative risk for RMI),"HSPG2 hCV1603692, Het(TC) stratum, Statin vs Placebo, covars none",0.37
same,RR (relative risk for RMI),"HSPG2 hCV1603692, Maj Hom (CC) stratum, Statin vs Placebo, covars none",0.79
same,RR (relative risk for RMI),"HSPG2 hCV1603692, Statin stratum, het (TC)vs. ref(CC), covars none",0.65
same,RR (relative risk for RMI),"HSPG2 hCV1603697, Het(TC) stratum, Statin vs Placebo, covars none",0.37
same,RR (relative risk for RMI),"HSPG2 hCV1603697, Maj Hom (CC) stratum, Statin vs Placebo, covars none",0.80
same,RR (relative risk for RMI),"HSPG2 hCV1603697, Statin stratum, het (TC)vs. ref(CC), covars none",0.65
